Biological target: T1, human capsaicin receptor (Homo sapiens, UniProt Q8NER1)
T1 construct: expression consrtuct encoding the full length human capsaicin receptor; expressed in transfected cells
Experiment: Capsaicin receptor binding assay ([3H]RTX competition)
Conditions: not given
Excerpt: Capsaicin Receptor Binding Assay
The following assay is a standard assay of capsaicin receptor binding that may be used to determine the binding affinity of compounds for the capsaicin (VR1) receptor.
Materials. [^3H]Resiniferatoxin (RTX; 37 Ci/mmol) was synthesized by and obtained from the Chemical Synthesis and Analysis Laboratory, National Cancer Institute-Frederick Cancer Research and Development Center, Frederick, MD. [^3H] […] Nonradioactive RTX may be purchased from Alexis Corp. (San Diego, Calif.) and capsazepine from RBI (Natick, Mass).
Cell Culture. […] These transfected cells are selected for two weeks in media containing G418 (400 ug/ml) and then maintained as a pool of stably transfected cells.
pUHG102 VR1 expression plasmids are transfected into Chinese Hamster Ovary (CHO) cells containing the pTet Off Regulator plasmid (Clontech). In these cells, expression of the pUHG plasmid is repressed in the presence of tetracycline but is induced upon removal of the antibiotic. Stable clones are isolated in culture medium containing puromycin (10 ug/ml) and maintained in medium supplemented with tetracycline (1 ug/ml) Cells utilized for assays are grown in culture medium without antibiotic for 48-72 hours prior to use. For radioligand binding experiments, cells are seeded in T175 cell culture flasks in media without antibiotics and grown to approximately 90% confluency. The flasks are then washed with PBS and harvested in PBS containing 5 mM EDTA. The cells are pelleted by gentle centrifugation and stored at −80° C. until assayed.
Previously frozen cells are disrupted with the aid of a tissue homogenizer in ice-cold HEPES homogenization buffer (5mM KCl 5, 5.8mM NaCl, 0.75mM CaCl2, 2mM MgCl2, 320 mM sucrose, and 10 mM HEPES pH 7.4). Tissue homogenates are first centrifuged for 10 min at 1000×g (4° C.) to remove the nuclear fraction and debris and then the supernatant from the first centrifugation is further centrifuged for 30 min at 35,000×g (4° C.) to obtain a partially purified membrane fraction. Membranes are resuspended in the HEPES homogenization buffer prior to being assayed. An aliquot of this membrane homogenate is used to determine protein concentration via the Bradford method (BIO-RAD Protein Assay Ki t, #500-0001, BIO-RAD, Hercules, Calif.).
Binding assay mixtures were set up on ice and contained [^3H]RTX (specific activity 2200 mCi/ml), 2 ul non-radioactive ligands test compound, 0.25 mg/ml bovine serum albumin (Cohn fraction V), and 5×10^4−1×10^5 VR1-transfected cells. The final volume was adjusted to 500 ul (competition binding assays) or 1,000 ul (saturation binding assays) with the ice-cold HEPES homogenization buffer solution (pH 7.4) described above. Non-specific binding was defined as that occurring in the presence of 1 uM non-radioactive RTX. For saturation binding, [^3H]RTX was added in the concentration range of 7 - 1,000 pM, using 1 to 2 dilutions. Typically 11 concentration points are collected per saturation binding curve.
Competition binding assays were performed in the presence of 60 pM [^3H]RTX and various concentrations of competing ligands. The binding reactions are initiated by transferring the assay mixtures into a 37° C. water bath and are terminated following a 60 min incubation period by cooling the tubes on ice. Membrane-bound RTX is separated from free, as well as any alpha1-acid glycoprotein-bound RTX, by filtration onto WALLAC glass fiber filters (PERKIN-ELMER, Gaithersburg, Md.) which are pre-soaked with 1.0% PEI (polyethyleneimine) for 2 hours prior to use.

T1 sequence (Q8NER1 whole entry): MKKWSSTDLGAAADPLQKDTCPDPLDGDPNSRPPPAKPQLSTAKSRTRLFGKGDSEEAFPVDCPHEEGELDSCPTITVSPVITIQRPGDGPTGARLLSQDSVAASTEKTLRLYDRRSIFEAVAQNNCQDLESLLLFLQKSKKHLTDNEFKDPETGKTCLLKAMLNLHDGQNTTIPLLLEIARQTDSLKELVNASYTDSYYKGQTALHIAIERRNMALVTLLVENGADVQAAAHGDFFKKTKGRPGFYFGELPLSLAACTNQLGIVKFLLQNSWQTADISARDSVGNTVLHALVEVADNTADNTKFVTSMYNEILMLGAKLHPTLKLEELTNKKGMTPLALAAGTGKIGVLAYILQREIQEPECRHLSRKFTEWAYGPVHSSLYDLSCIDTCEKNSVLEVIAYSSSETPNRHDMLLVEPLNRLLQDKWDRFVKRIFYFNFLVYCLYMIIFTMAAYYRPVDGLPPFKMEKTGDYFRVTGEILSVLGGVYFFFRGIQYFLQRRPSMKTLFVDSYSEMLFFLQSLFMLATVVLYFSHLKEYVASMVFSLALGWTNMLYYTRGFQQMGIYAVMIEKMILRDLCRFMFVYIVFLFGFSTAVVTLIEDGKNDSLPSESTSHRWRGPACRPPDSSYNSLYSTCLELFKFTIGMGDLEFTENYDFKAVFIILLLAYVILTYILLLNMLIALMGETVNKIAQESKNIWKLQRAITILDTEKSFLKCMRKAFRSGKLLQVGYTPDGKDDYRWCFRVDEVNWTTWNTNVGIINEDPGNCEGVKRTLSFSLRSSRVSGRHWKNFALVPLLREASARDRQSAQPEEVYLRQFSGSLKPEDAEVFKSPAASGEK

Row | Compound | Ki
1 | CC(C)c1ccc(NC(=O)N2CCN(c3ncccc3C#N)CC2)cc1 [Compound 12, 4-(3-Cyano-2-pyridinyl)-N-[4-(isopropyl)phenyl]-1-piperazinecarboxamide] | < 4 µM

Same assay, conditions: Table II; read-out: Activity

Row | Compound | Ki
2 | Cc1cccnc1C(=O)C=Cc1ccc(C(F)(F)F)cc1 [Compound 10, 1-(3-Methyl-2-pyridinyl)-3-(4-trifluoromethylphenyl)-prop-2-en-1-one] | < 4 µM
3 | CC(C)c1ccc(NC(=O)N2CCN(c3ncc(C(F)(F)F)cc3Cl)CC2)cc1 [Compound 7, 4-(3-Chloro-5-trifluoromethyl-2-pyridinyl)-N-[4-(isopropyl)phenyl]-1-piperazinecarboxamide] | < 4 µM
4 | CC(C)c1ccc(NC(=O)N2CCN(c3ncccc3Cl)CC2)cc1 [Compound 8, 4-(3-Chloro-2-pyridinyl)-N-[4-(isopropyl)phenyl]-1-piperazinecarboxamide] | < 4 µM
5 | CCCCc1ccc(NC(=O)N2CCN(c3ncccc3C(F)(F)F)CC2)cc1 [Compound 3, 4-(3-Trifluoromethyl-2-pyridinyl)-N-[4-(n-butyl)phenyl]-1-piperazinecarboxamide] | < 4 µM
6 | CCCCc1ccc(NC(=O)N2CCN(c3ncccc3[N+](=O)[O-])CC2)cc1 [Compound 2, 4-(3-Nitro-2-pyridinyl)-N-[4-(n-butyl)phenyl]-1-piperazinecarboxamide] | < 4 µM
7 | CC(C)c1ccc(NC(=O)N2CCN(c3ncc(Cl)cc3Cl)CC2)cc1 [Compound 9, 4-(3,5-Dichloro-2-pyridinyl)-N-[4-(isopropyl)phenyl]-1-piperazinecarboxamide] | < 4 µM
8 | CC(C)c1ccc(C=CC(=O)c2ncccc2C(F)(F)F)cc1 [Compound 11, 1-(3-Trifluoromethyl-2-pyridinyl)-3-(4-isopropylphenyl)-prop-2-en-1-one] | < 4 µM
9 | Cc1cccnc1N1CCN(C(=O)Nc2ccc(C(C)C)cc2)CC1 [Compound 4, 4-(3-Methyl-2-pyridinyl)-N-[4-(isopropyl)phenyl]-1-Piperazinecarboxamide] | < 4 µM
10 | 4-(3-Chloro-2-pyridinyl)-N-[4-(isopropyl)phenyl]-1-piperazinecarboxamide [Compound 14] | < 4 µM

Same assay, conditions: read-out: Capsaicin rececptor Ki

Row | Compound | Ki
11 | COc1cc(CNC(=O)N2CCN(c3ncccc3C(F)(F)F)CC2)ccc1O [Compound 1, 4-(3-Trifluoromethyl-2-pyridinyl)-N-(3-methoxy-4-hydroxyphenylmethyl)-1-piperazinecarboxamide] | 0.366 µM

Biological target: T1, human capsaicin receptor
Experiment: Antagonist assay for Capsaicin receptor mediated calcium mobilization
Assay type: cell-based
Conditions: Table III, read-out: EC50 (the source's name)
Method in brief: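 Cells expressing human capsaicin receptor, loaded with Fluo-3 AM, were preincubated 0.5–6 h at room temperature in the dark with test compound at 1–5 μM final in KRH buffer (pH 7.4, 2 mM CaCl2, probenecid). Capsaicin at its EC50 was then added via FLIPR; IC50 is the antagonist concentration halving the calcium signal.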

Row | Compound | IC50
12 | C[C@@H]1CN(c2ncccc2Cl)CCN1C(=O)Nc1ccc(C2CCOCC2)cc1 [Compound 49, (2R)-4-(3-chloropyridin-2-yl)-2-methyyl-N-(4-tetrahydro-2H-pyran-4-ylphenyl)piperazne-1-carboxamide] | < 1 µM
13 | C[C@@H]1CN(c2ncccc2C(F)(F)F)CCN1C(=O)Nc1ccc(C2CCCC2)cc1 [Compound 37, (2R)-N-(4-cyclopentylphenyl)-2-methyl-4-[3-(trifluoromethyl)pyridin-2-yl]piperazine-1-carboxamide] | < 1 µM
14 | C[C@@H]1CN(c2ncccc2C(F)(F)F)CCN1C(=O)Nc1ccc(C2CCCCC2)cc1 [Compound 34, (2R)-N-(4-cyclohexylphenyl)-2-methyl-4-[3-(trifluoromethyl)pyridin-2-yl]piperazine-1-carboxamide] | < 1 µM
15 | CC(C)C1CN(c2ncccc2C(F)(F)F)CCN1C(=O)Nc1ccc(C(C)(C)C)cc1 (stereo not drawn) [Compound 72, N-(4-tert-butylphenyl)-2-isopropylk-4-[3-(trifluoromethyl)pyridin-2-yl]piperazine-1-carboxamide] | < 1 µM
16 | C[C@@H]1CN(c2ncccc2Cl)CCN1C(=O)Nc1ccc(C2CCCCC2)cc1 [Compound 18, (2R)-4-(3-chloropyridin-2-yl)-N-(4-cyclohexylphenyl)-2-methylpiperazine-1-carboxamide] | < 1 µM
17 | C[C@@H]1CN(c2ncccc2Cl)CCN1C(=O)Nc1ccc(C2CCCC2)cc1 [Compound 36, (2R)-4-(3-chloropyridin-2-yl)-N-(4-cyclopentylphenyl)-2-methylpiperazine-1-carboxamide] | < 1 µM

Same assay, conditions: Table V, read-out: EC50 (the source's name)

Row | Compound | IC50
18 | Cc1ccc(NC(=O)N2CCN(c3ncccc3C(F)(F)F)C[C@H]2C)cc1C(F)(F)F [Compound 155, (2R)-2-methyl-N-[4-methyl-3-(trifluoromethyl)phenyl]-4-[3-(trifluoromethyl)pyridin-2-yl]piperazine-1-carboxamide] | < 1 µM
19 | O=C(Nc1cc(Cl)cc(Cl)c1)N1CCN(c2ncccc2C(F)(F)F)CC1 [Compound 119, N-(3,5-dichlorophenyl)-4-[3-(trifluoromethyl)pyridin-2-yl]piperazine-1-carboxamide] | < 1 µM
20 | O=C(Nc1cccc(C(F)(F)F)c1)N1CCN(c2ncccc2C(F)(F)F)CC1 [Compound 110, N-[3-(trifluoromethyl)phenyl]-4-[3-(trifluoromethyl)pyridin-2-yl]piperazine-1-carboxamide] | < 1 µM
21 | C[C@@H]1CN(c2ncccc2Cl)CCN1C(=O)Nc1ccc2c(c1)Cc1ccccc1-2 [Compound 142, (2R)-4-(3-chloropyridin-2-yl)-N-(9H-flouren-2-yl)-2-methylpiperazine-1-carboxamide] | < 1 µM
22 | CC(c1ccc(NC(=O)N2CCN(c3ncccc3C(F)(F)F)C[C@H]2C)cc1)C(F)(F)F (stereo partly drawn) [Compound 129, (2R)-2-methyl-N-[4-(2,2,2-trifluoro-1-methylethyl)phenyl]-4-[3-(trifluoromethyl)pyridin-2-yl]piperazine-1-carboxamide] | < 1 µM

Test system: not listed separately
Experiment: Sedative effect noted in CFA arthritis model protocol
Assay type: in vivo, rats
Conditions: oral dose of 5mg/kg
Experimental: Male SD rats are injected with […] of CFA (0.1 mg heat killed and dried M. tuberculosis/ml) in the hind paw ([…] on the plantar surface of the paw) essentially as described by Bertorelli R, Corradini L, Rafiq K, Tupper J, Calo G, Ongini E., Br J Pharmacol. 1999 128(6):1252-8 and by Stein C, Millan M J, Herz A. Pharmacol Biochem Behav. 1988 31(2):455-51.
On day 7, animals are treated orally with a compound of the invention, morphine or vehicle (2% vitamin E-TPGS) 1 hour prior to testing.

Row | Compound | sedative effects
23 | CN1CC[C@]23c4c5ccc(O)c4O[C@H]2[C@@H](O)C=C[C@H]3[C@H]1C5 [morphine] | has sedative effects

Test system: not given
Experiment: not given
Conditions: not given

Row | Compound | melting point
24 | CC(C)c1ccc(NC(=S)N2CCN(c3ncccc3Cl)C[C@H]2C)cc1 (stereo in doubt) [Example 7, 4-(3-Chloro-pyridin-2-yl)-2-methyl-piperazine-1-carbothioic acid (4-isopropyl-phenyl)-amide] | 49 to 51 °C
